According to patent publication US20200268793A1, “METHODS AND COMPOSITIONS FOR ALLEVIATING CYTOKINE RELEASE SYNDROME” (MEMORIAL SLOAN-KETTERING CANCER CENTER, priority 2017, published 2020):
“Also recorded” adds a separate entry of the source. Where two headings read alike, the source gives them in different places.

Experiments:
[1] = tested on: SCID-beige mice with established intraperitoneal Raji tumors; assay: CRS mouse model: survival, weight change, toxicity and histopathology after CAR T cell transfer; type: in vivo; details: tumor bearing mice after 1928z CAR T cell transfer; for Toxicity as witnessed by weight loss (percent weight change) under treatment: 5 mg/kg intraperitoneally once per day; for CRS-associated mortality (percent survival) under treatment: agent given intraperitoneally once per day for 5 days
Protocol: Mice were treated under a protocol approved by the MSKCC Institutional Animal Care and Use Committee. CRS Model: 6-8 week old female C.B.Igh-1b/GbmsTac-Prkdc^scidLyst^bgN7 (SCID-beige) mice (Taconic) were intraperitoneally injected with 3 million Raji-GFP-Fluc cells and tumors were left to grow for 20 days. Tumor burden was evaluated by in vivo bioluminescent imaging two days prior to CAR T cell transfer. Outliers, mice with inconsistently higher or lower tumor burdens were excluded from the experiment. Mice were injected intraperitoneally with 30 million CAR^+ T cells in PBS supplemented with 2% Human Serum. Control mice received PBS supplemented with 2% Human Serum. Stress test model: 6-8 week-old male NOD.Cg-Prkdc^scidIl2rg^tmWjl/SzJ (NSG) mice (Jackson Laboratory) were inoculated with 0.5×10^6 NALM-6-GFP-Fluc cells by tail vein injection followed by with 0.2×10^6 or with 0.5×10^6 CAR T cells four days later. Bioluminescence imaging utilized the Xenogen IVIS Imaging System (Xenogen) with Living Image software (Xenogen) for acquisition of imaging datasets. Tumor Burden was assessed as previously described^34.
(§1) Anakinra was administered intraperitoneally at 30 mg/kg once per day for 5 days, starting 5 hours prior to CAR T cell transfer. Anti-murine IL-6 (clone MP5-20F3, BioXcell) and anti-murine IL-6R (clone 15A7, BioXcell) were administered intraperitoneally once per day at 25 mg/kg for the first dose and 12.5 mg/kg for subsequent doses for 5 days starting 5 hours prior to CAR T cell transfer. L-NIL (Enzo Life Sciences) or 1400W (Cayman Chemical) were administered intraperitoneally at 5 mg/kg once per day for 5 days starting 5 hours prior to CAR T cell transfer.
Mice were transferred to the pathology core facility of Memorial Sloan Kettering where they were sacrificed by cardiac puncture. Tissues obtained were fixed in 10% buffered formalin and were further processed for H&E staining and immunohistochemistry.
To model CAR T cell-induced CRS, conditions were established whereby a high number of CD19 CAR T cells engaged a high tumor burden and yielded overt toxicity within 2-3 days^2-5 (FIG. 1A). […] The overall levels of these cytokines, including mIL6, mCCL2, mG-CSF, hIL-3, hIFN-γ, hGM-CSF, hIL-2 correlated strongly with CRS severity and survival (FIGS. 1E-1L and 1S). The xenogeneic nature of this model was taken advantage of to discern the origin of these cytokines and chemokines. Thus, IL-6 was produced by endogenous murine cells while IFN-γ and GM-CSF were products of the CART cells. mIL6 and hIL6.^12, were not elevated in the absence of CART cells (FIGS. 1M-1O, 1T and 5D), establishing that this cardinal feature of CRS was the result a multicellular interaction and not the outcome of a T cell-tumor cell interaction.

iNOS = iNOS expression in peritoneal macrophages by intracellular flow cytometry in CRS mice; type: in vivo, mouse; details: 18 hours post CAR T cell transfer
Protocol: as §1
Antibodies were titrated for optimal staining. The following fluorophore conjugated antibodies were used (“h” prefix denotes anti-human, “m” prefix denotes anti-mouse): hCD4 BUV395 (clone RPA-T4, BD), hCD8 PE-Cy7 (clone SK1, eBioscience), hCD3 PerCP-efluor710 (clone OKT3, eBioscience), hCD19 BUV737 (clone SJ25C1, BD), hLNGFR BB515 (clone C40-1457, BD), mF4/80 BV421 and BV711 (clone T45-2342, BD), mLy6C Alexa Fluor 647 and BV786 (clone ER-MP20, AbdSerotec and clone HK1.4, BioLegend respectively), mMHCII BB515 (clone 2G9, BD), mCD11c BV650 (clone N418, BioLegend), mLy6G APC-Fire750 (clone 1A8, BioLegend), mSIGLEC-F PE-CF594 (clone E50-2440, BD), mCD40 BV786 (clone 3/23, BD), mCD40L PE (clone MR1, BD), mCD11b BUV395 (clone M1/70, BD), mNOS2 PE-Cy7 (clone CXNFT, eBioscience). […]

cognate murine receptor = details: cytokines of human origin, cited from earlier work
cognate human receptor = details: cytokines of murine origin; cited from earlier work

Molecule: CC(=N)NCc1cccc(CN)c1 [1400W]
- Toxicity as witnessed by weight loss (percent weight change) under treatment [1]: reversed toxicity
- CRS-associated mortality (percent survival) under treatment [1]: significantly prevented mortality

Molecule: CC(=N)NCCCC[C@H](N)C(=O)O [L-NIL, L-N6-(1-iminoethyl)lysine]
- Toxicity as witnessed by weight loss (percent weight change) under treatment [1]: robust reversal of toxicity

Molecule: Anakinra: IL-1Ra polypeptide used for IL-1 blockade
- CRS-associated mortality (percent survival) under treatment [1]: completely abrogated CRS-related mortality
- iNOS+ macrophage fraction (iNOS): similarly reduced

Molecule: GM-CSF: cytokine of human origin
- Human on mouse (active on the cognate murine receptor) (cognate murine receptor): lack of activity; also recorded: No^39

Molecule: IFNg: cytokine of human origin
- Human on mouse (active on the cognate murine receptor) (cognate murine receptor): No^38
- Human on mouse (active on the cognate murine receptor) (cognate murine receptor; listed as human IFN-γ): lack of activity

Molecule: IL-8: cytokine of human origin
- Human on mouse (active on the cognate murine receptor) (cognate murine receptor): Yes^40

Molecule: IL-10: cytokine of human origin
- Human on mouse (active on the cognate murine receptor) (cognate murine receptor): Yes^40

Molecule: IL-13: cytokine of human origin
- Human on mouse (active on the cognate murine receptor) (cognate murine receptor): Yes^40

Molecule: IL-17: cytokine of human origin
- Human on mouse (active on the cognate murine receptor) (cognate murine receptor): Yes^40

Molecule: TNFa
- Human on mouse (active on the cognate murine receptor) (cognate murine receptor): Partial^40
- Human on mouse (active on the cognate murine receptor) (cognate murine receptor; listed as Human TNF-α): can signal through the murine p55 TNF receptor but not the p75 TNF receptor

Molecule: human CD40L: CD40 ligand, mainly expressed by T cells
- Human on mouse (active on the cognate murine receptor) (cognate murine receptor): does not functionally interact

B1: IL-5: cytokine of murine origin (protein, UniProt P04401 21-133, looked up)
Interleukin-5: MEIPMSTVVKETLTQLSAHRALLTSNETMRLPVPTHKNHQLCIGEIFQGLDILKNQTVRGGTVEMLFQNLSLIKKYIDRQKEKCGEERRRTRQFLDYLQEFLGVMSTEWAMEG
- Mouse on human (active on the cognate human receptor) (cognate human receptor): Yes^40

B2: IL-6: cytokine of murine origin (protein, UniProt P08505 25-211, looked up)
Interleukin-6: FPTSQVRRGDFTEDTTPNRPVYTTSQVGGLITHVLWEIVEMRKELCNGNSDCMNNDDALAENNLKLPEIQRNDGCYQTGYNQEICLLKISSGLLEYHSYLEYMKNNLKDNKKDKARVLQRDTETLIHIFNQEVKDLHKIVLPTPISNALLTDKLESQKEWLRTKTIQFILKSLEEFLKVTLRSTRQT
- Mouse on human (active on the cognate human receptor) (cognate human receptor): No^39

B3: IL-15: cytokine of murine origin (protein, UniProt P48346 49-162, looked up)
Interleukin-15: NWIDVRYDLEKIESLIQSIHIDTTLYTDSDFHPSCKVTAMNCFLLELQVILHEYSNMTLNETVRNVLYLANSTLSSNKNVAESGCKECEELEEKTFTEFLQSFIRIVQMFINTS
- Mouse on human (active on the cognate human receptor) (cognate human receptor): Yes^39
